Assay results: patent US8889887B2, “Pentamethine cyanine fluorescent dyes, preparation methods and uses thereof” (Dalian University of Technology, priority 2011, dated 2014)
Where “and” joins values, the source holds several entries; their conditions need not be identical. Equal values may be shown once. Where a name gives a salt, the structure may show the parent alone.

Experiments:
[1] = UV absorption and fluorescence emission spectra in different solvents; assay type: physicochemical; conditions: for λabs1 maximum absorption wavelength / λabs2 maximum absorption wavelength / λem1 maximum emission wavelength / λem2 maximum emission wavelength: 1 μM; for Φ1 fluorescence quantum yield / Φ2 fluorescence quantum yield: reference Rhodamine B in ethanol
Description: Firstly, stock solutions of 4 and 7 in DMSO were prepared respectively. Then sample solutions of 1 μM were prepared by diluting the mother liquors with corresponding chromatography grade solvent. UV absorption and fluorescence emission spectra of the sample solutions in different solvents were measured at room temperature, the results were shown in FIGS. 1A and 1B, respectively.

[2] = Viscosity experiments: absorption and emission spectra in glycerol-ethanol mixtures; assay type: physicochemical
Description: (§1) Firstly, DMSO solutions of 4 and 7 having a concentration of 1.0×10^−3 M were prepared, respectively. The stock solution of […] was added into 10 mL glycerol-ethanol mixture, and ultrasonicated to remove bubbles. The solution stayed for 1 hour, and then absorption and emission spectra therefore were measured by using UV-visible spectrophotometer and fluorescence spectrophotometer, and fluorescence lifetime of solution with different viscosity was detected as well. UV-visible spectrophotometer, model: Hp8453; fluorescence spectrophotometer model: FP-6500; Fluorescence lifetime equipment: Horiba Jobin Yvon Fluoromax-4-p.
(§2) Glycerol-ethanol mixture was a mixture of glycerol and ethanol, Vglycerol: Vethanol were 1:9, 2:8, 3:7, 4:6, 5:5, 6:4, 7:3, 8:2 and 9:1.

[3] = Fluorescence lifetime in solutions with different viscosity; assay type: physicochemical; conditions: FIG. 5A, 1 μM
Description: as §1, §2

MCF-7 cells = assay: Fluorescence imaging of stained cells under laser confocal scanning microscopy; assay type: cell-based
Description: The compounds 4 and 7 (12 μL, 5 μM) in PBS buffer were added into a 6-well plate with incubated MCF-7 cells, and then the plate was incubated for 30 minutes in a cell incubator of 37° C. and 5% CO2. The plate was rinsed with PBS for 5 min×3 times, fresh culture medium was added thereto, and the cells were observed under laser confocal scanning microscopy (Leica, TCS-SP2, Germany). Typical region was selected, the traditional Cy5 was excited at 633 nm and 7 was excited at 514 nm, the cells were observed under oil immersion lens (1000×) for three times.
(§3) MCF-7 cells and Hela cells were inoculated on a 6-well plate and cultured for 24 hours at 37° C. and 5% CO2. Then, the dye was added in a final concentration of 5 μM, and the plate was incubated at 37° C. for 30 min. The culture medium was moved off, and the plate was rinsed with PBS for two times. Fresh culture medium 1200 μL was added and the fluorescence was excited.
as §3, with “Then, H2O2 133.3 µL was added in a final concentration of 1 mM/L, and the plate was incubated at 37° C. for 2 hours. The culture medium was moved off, and the plate was rinsed with PBS for two times. Fresh culture medium 1200 μL was added and then” for “Then,”, “μM,” for “μM, and”
MCF-7 cells and Hela cells were inoculated on a 6-well plate and cultured for 24 hours at 37° C. and 5% CO2. The culture medium was moved off, and the plate was rinsed with PBS for two times. Appropriate amount of 70% ethanol was added and then the plate was incubated at 37° C. for 30 min. Ethanol for fixing was moved off, and the plate was rinsed with PBS for two times. PBS 1200 μL was added and then the dye was added in a final concentration of 5 μM, the plate was incubated at 37° C. for 30 min and the fluorescence was excited.

In the case of `CCN1/C(=C/C=C(C=C(C#N)C#N)/C=C/C2=[N+](CC)c3ccccc3C2(C)C)C(C)(C)c2ccccc21` [compound 7, 1,5-di(1-N-ethyl-3,3-dimethyl-2,3-H— lindoline)-3-(2,2-dicyanovinyl)-1,3,5-pentatriene chloride quaternary ammonium salt cyanine dye], the “Δλ1 Stokes Shift (λem1 − λabs1)” value ([1]; DMSO) was 47 nm, the “Δλ2 Stokes Shift (λem2 − λabs2)” value ([1]; DMSO) was 31 nm and the “Δλ3 Stokes Shift (λem2 − λabs1)” value ([1]; DMSO) was 148 nm. The “ε1 molar extinction coefficient” value ([1]; DMSO) was 45000 L/cm/mol, the “ε2 molar extinction coefficient” value ([1]; DMSO) was 118200 L/cm/mol and the “λabs1 maximum absorption wavelength” value ([1]; DMSO) was 522 nm. The “λabs2 maximum absorption wavelength” value ([1]; DMSO) was 639 nm, the “λem1 maximum emission wavelength” value ([1]; DMSO) was 569 nm and the “λem2 maximum emission wavelength” value ([1]; DMSO) was 670 nm. For the same compound, the “Φ1 fluorescence quantum yield” value ([1]; DMSO) was 0.0057, the “Φ2 fluorescence quantum yield” value ([1]; DMSO) was 0.0113 and the “Δλ1 Stokes Shift (λem1 − λabs1)” value ([1]; acetonitrile) was 48 nm. For the same compound, the “Δλ2 Stokes Shift (λem2 − λabs2)” value ([1]; acetonitrile) was 25 nm, the “Δλ3 Stokes Shift (λem2 − λabs1)” value ([1]; acetonitrile) was 148 nm and the “ε1 molar extinction coefficient” value ([1]; acetonitrile) was 59400 L/cm/mol. For the same compound, the “ε2 molar extinction coefficient” value ([1]; acetonitrile) was 112000 L/cm/mol, the “λabs1 maximum absorption wavelength” value ([1]; acetonitrile) was 513 nm and the “λabs2 maximum absorption wavelength” value ([1]; acetonitrile) was 635 nm. The “λem1 maximum emission wavelength” value ([1]; acetonitrile) was 561 nm, the “λem2 maximum emission wavelength” value ([1]; acetonitrile) was 661 nm and the “Φ1 fluorescence quantum yield” value ([1]; acetonitrile) was 0.0017. The “Φ2 fluorescence quantum yield” value ([1]; acetonitrile) was 0.0019, the “Δλ1 Stokes Shift (λem1 − λabs1)” value ([1]; dichloromethane) was 56 nm and the “Δλ2 Stokes Shift (λem2 − λabs2)” value ([1]; dichloromethane) was 16 nm. The “Δλ3 Stokes Shift (λem2 − λabs1)” value ([1]; dichloromethane) was 160 nm, the “ε1 molar extinction coefficient” value ([1]; dichloromethane) was 49700 L/cm/mol and the “ε2 molar extinction coefficient” value ([1]; dichloromethane) was 113500 L/cm/mol. The “λabs1 maximum absorption wavelength” value ([1]; dichloromethane) was 512 nm, the “λabs2 maximum absorption wavelength” value ([1]; dichloromethane) was 656 nm and the “λem1 maximum emission wavelength” value ([1]; dichloromethane) was 568 nm. The “λem2 maximum emission wavelength” value ([1]; dichloromethane) was 672 nm, the “Φ1 fluorescence quantum yield” value ([1]; dichloromethane) was 0.0016 and the “Φ2 fluorescence quantum yield” value ([1]; dichloromethane) was 0.006. The “Δλ1 Stokes Shift (λem1 − λabs1)” value ([1]; ethanol) was 56 nm, the “Δλ2 Stokes Shift (λem2 − λabs2)” value ([1]; ethanol) was 27 nm and the “Δλ3 Stokes Shift (λem2 − λabs1), pseudo-Stokes Shift” value ([1]; ethanol) was 158 nm. The “ε1 molar extinction coefficient” value ([1]; ethanol) was 53100 L/cm/mol, the “ε2 molar extinction coefficient” value ([1]; ethanol) was 125600 L/cm/mol and the “λabs1 maximum absorption wavelength” value ([1]; ethanol) was 510 nm. The “λabs2 maximum absorption wavelength” value ([1]; ethanol) was 641 nm, the “λem1 maximum emission wavelength” value ([1]; ethanol) was 566 nm and the “λem2 maximum emission wavelength” value ([1]; ethanol) was 668 nm. The “Φ1 fluorescence quantum yield” value ([1]; ethanol) was 0.0022, the “Φ2 fluorescence quantum yield” value ([1]; ethanol) was 0.0048 and the “sensitivity to solvent polarity” value ([1]; low-viscosity solvents of different polarity) was “insensitive to solvent polarity”. For the same compound, the “Δλ1 Stokes Shift (λem1 − λabs1)” value ([1]; methanol) was 59 nm, the “Δλ2 Stokes Shift (λem2 − λabs2)” value ([1]; methanol) was 25 nm and the “Δλ3 Stokes Shift (λem2 − λabs1)” value ([1]; methanol) was 156 nm. For the same compound, the “ε1 molar extinction coefficient” value ([1]; methanol) was 49000 L/cm/mol, the “ε2 molar extinction coefficient” value ([1]; methanol) was 122000 L/cm/mol and the “λabs1 maximum absorption wavelength” value ([1]; methanol) was 509 nm. The “λabs2 maximum absorption wavelength” value ([1]; methanol) was 636 nm, the “λem1 maximum emission wavelength” value ([1]; methanol) was 568 nm and the “λem2 maximum emission wavelength” value ([1]; methanol) was 665 nm. For the same compound, the “Φ1 fluorescence quantum yield” value ([1]; methanol) was 0.0022, the “Φ2 fluorescence quantum yield” value ([1]; methanol) was 0.0031 and the “absorption peak, longer wavelength” value ([1]; solvent not stated) was 655 nm. For the same compound, the “absorption peak, shorter wavelength” value ([1]; solvent not stated) was 510 nm, the “emission peak, longer wavelength” value ([1]; solvent not stated) was 668 nm and 665 nm and the “emission peak, shorter wavelength” value ([1]; solvent not stated) was 565 nm. The “Δλ1 Stokes Shift (λem1 − λabs1)” value ([1]; water) was 50 nm, the “Δλ2 Stokes Shift (λem2 − λabs2)” value ([1]; water) was 28 nm and the “Δλ3 Stokes Shift (λem2 − λabs1)” value ([1]; water) was 135 nm. For the same compound, the “ε1 molar extinction coefficient” value ([1]; water) was 31000 L/cm/mol, the “ε2 molar extinction coefficient” value ([1]; water) was 52400 L/cm/mol and the “λabs1 maximum absorption wavelength” value ([1]; water) was 520 nm. The “λabs2 maximum absorption wavelength” value ([1]; water) was 627 nm, the “λem1 maximum emission wavelength” value ([1]; water) was 570 nm and the “λem2 maximum emission wavelength” value ([1]; water) was 655 nm. For the same compound, the “Φ1 fluorescence quantum yield” value ([1]; water) was 0.0006, the “Φ2 fluorescence quantum yield” value ([1]; water) was 0.0028 and the “UV absorption with variation of solution viscosity” value ([2]; FIG. 4A, 1 μM) was “kept constant”. The “sensitivity of fluorescence intensity to solvent viscosity” value ([2]; glycerol-ethanol mixtures) was “quite sensitive to solvent viscosity”, the “fluorescence lifetime at 665 nm with increase of solution viscosity” value [3] was “obviously elongated” and the “ratio value of fluorescence (red 665 / green 565 nm channel)” value (MCF-7 cells; MCF-7 cells stood 4 hours at room temperature after incubation (dying)) was “ratio value of the probe was between (1) and (2)”. For the same compound, the “ratio value of fluorescence (red 665 / green 565 nm channel)” value (MCF-7 cells; MCF-7 cells treated with hydrogen peroxide (1 mM), apoptosis induced) was “ratio value was increased” and the “ratio value of fluorescence (red 665 / green 565 nm channel)” value (MCF-7 cells; normal live MCF-7 cells, 5 μM, 30 minutes) was “ratio value was small”.
